This is an account of results in patent publication US7795294B2, “Tetrahydro-2H-indazole pyrazole cannabinoid modulators” (Janssen Pharmaceutica N.V., priority 2006, dated 2010).

One assay has as its target T1, human CB1 receptor (Homo sapiens, UniProt P21554).
T1 construct: expressed in transfected cells; host or cells: SK-N-MC cells, stably transfected with pcDNA3 CB-1 (human); semi-purified membrane pellet
Briefly: Binding assay for CB1 agonists or inverse agonists, [3H]-CP-55,940 displacement on membranes of transfected SK-N-MC cells. How it is done: (§1) The human CB1 and CB2 receptors were stably expressed in SK-N-MC cells transfected with pcDNA3 CB-1 (human) or pcDNA3 CB-2 (human). The cells were grown in T-180 cell culture flasks under standard cell culture conditions at 37° C. in a 5% CO2 atmosphere. The cells were harvested by trysinization and homogenized in a homogenization buffer (10 mM Tris, 0.2 mM MgCl2, 5 mM KCl, with protease inhibitors aprotinin, leupeptin, pepstatin A and bacitracin) and centrifuged (2000 g). The supernatant was then centrifuged in 2M sucrose (31,300 g) to produce a semi-purified membrane pellet. The pellet was resuspended in homogenization and stored at −80° C.
(§2) On the day of the assay, the pellet was thawed on ice and diluted in assay buffer (50 mM Tris-HCl, 5 mM MgCl2, 2.5 mM EDTA, 0.5 mg/mL fatty acid free bovine serum albumin, pH 7.5). […] The plate was covered and incubated for 90 minutes at 30° C. The contents were then aspirated onto a Packard Unifilter GF/C filter bottom plate prewet with 0.5% polyethyleneimine. The wells of the polypropylene plate were rinsed and aspirated seven times with a 0.9% saline-0.5% Tween 20 solution. The Unifilter plate was dried, a scintillation cocktail was added to each well and the counts representing binding were quantitated in a TopCount scintillation counter.
(§3) For compounds tested, an IC50 binding value was obtained from percent inhibition studies in which various test concentrations were used. The binding value was calculated by linear regression. An average value is shown for those compounds where two or more IC50 values were obtained.
(§4) An average value is shown for those compounds where two or more percent inhibition values were obtained.

The next assay has as its target T2, human CB2 receptor (Homo sapiens, UniProt P34972).
T2 construct: expressed in transfected cells; host or cells: SK-N-MC cells, stably transfected with pcDNA3 CB-2 (human); semi-purified membrane pellet
Briefly: Binding assay for CB2 agonists or inverse agonists, [3H]-CP-55,940 displacement on membranes of transfected SK-N-MC cells. How it is done:
as §1, §2, §3, §4

Each structure is given as a SMILES string.

T2 sequence (P34972 whole entry): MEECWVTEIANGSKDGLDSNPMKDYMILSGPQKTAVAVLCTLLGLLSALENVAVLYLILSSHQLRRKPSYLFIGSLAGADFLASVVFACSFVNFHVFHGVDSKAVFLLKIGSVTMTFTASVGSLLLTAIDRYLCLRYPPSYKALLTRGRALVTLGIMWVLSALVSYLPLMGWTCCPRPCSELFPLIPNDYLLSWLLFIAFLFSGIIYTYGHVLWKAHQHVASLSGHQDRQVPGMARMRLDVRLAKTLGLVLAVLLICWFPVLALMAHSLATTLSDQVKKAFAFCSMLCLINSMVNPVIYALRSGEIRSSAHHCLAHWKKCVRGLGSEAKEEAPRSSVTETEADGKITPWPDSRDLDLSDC
T1 sequence (P21554 whole entry): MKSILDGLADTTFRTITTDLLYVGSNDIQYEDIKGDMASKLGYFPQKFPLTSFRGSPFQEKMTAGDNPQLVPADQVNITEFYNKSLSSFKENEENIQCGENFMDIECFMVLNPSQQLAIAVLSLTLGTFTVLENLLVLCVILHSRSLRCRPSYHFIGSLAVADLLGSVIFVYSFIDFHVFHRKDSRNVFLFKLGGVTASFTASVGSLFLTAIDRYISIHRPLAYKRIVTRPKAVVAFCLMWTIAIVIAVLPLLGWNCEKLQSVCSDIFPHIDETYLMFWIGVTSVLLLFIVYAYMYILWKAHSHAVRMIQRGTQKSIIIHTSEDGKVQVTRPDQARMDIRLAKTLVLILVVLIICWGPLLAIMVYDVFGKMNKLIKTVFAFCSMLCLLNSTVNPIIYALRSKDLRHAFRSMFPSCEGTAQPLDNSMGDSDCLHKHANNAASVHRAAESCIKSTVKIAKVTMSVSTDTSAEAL

For the compound `O=C(N[C@H](CO)c1ccccc1)[C@@H]1CCCc2c1nn(-c1ccc(Cl)cc1Cl)c2-c1ccc(Br)s1` [Cpd 57, (7R)-3-(5-bromo-thiophen-2-yl)-2-(2,4-dichloro-phenyl)-4,5,6,7-tetrahydro-2H-indazole-7-carboxylic acid [(1S)-2-hydroxy-1-phenyl-ethyl]-amide], the IC50 on human CB1 receptor and on human CB2 receptor was 300 nM in each case.

Usually IC50 stands for the point on the concentration scale where inhibition reaches its midpoint. Low values mean higher potency, high ones lower potency.
